Laboratory results published in PubChem BioAssay (NCI).
Where “and” joins values, the source holds several entries; their conditions need not be identical. Equal values may be shown once.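 Tested at 5 concentrations; 48 h exposure; 96-well plates; endpoints linearly interpolated, else capped at highest concentration. At the GI50, growth is halved. TGI denotes the concentration required for complete inhibition of growth.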

Key:
Assay in all cases: NCI-60 cell line screen, 48 h
IGROV1 ovarian = tested on: IGROV1 ovarian
SNB-19 CNS = tested on: SNB-19 CNS
SK-OV-3 ovarian = tested on: SK-OV-3 ovarian
BT-549 breast = tested on: BT-549 breast
ACHN renal = tested on: ACHN renal
K-562 leukemia = tested on: K-562 leukemia
NCI-H522 lung = tested on: NCI-H522 lung
EKVX NSCLC = tested on: EKVX NSCLC
SN12C renal = tested on: SN12C renal
HL-60(TB) leukemia = tested on: HL-60(TB) leukemia
HCC-2998 colon = tested on: HCC-2998 colon
RPMI-8226 leukemia = tested on: RPMI-8226 leukemia
COLO 205 colon = tested on: COLO 205 colon
UO-31 renal = tested on: UO-31 renal
T-47D breast = tested on: T-47D breast
MOLT-4 leukemia = tested on: MOLT-4 leukemia
LOX IMVI melanoma = tested on: LOX IMVI melanoma
SK-MEL-2 melanoma = tested on: SK-MEL-2 melanoma
RXF 393 renal = tested on: RXF 393 renal
M14 melanoma = tested on: M14 melanoma
HT29 colon = tested on: HT29 colon
PC-3 prostate = tested on: PC-3 prostate
NCI-H460 lung = tested on: NCI-H460 lung
CCRF-CEM leukemia = tested on: CCRF-CEM leukemia
HCT-15 colon = tested on: HCT-15 colon
MDA-MB-231 breast = tested on: MDA-MB-231 breast
786-0 renal = tested on: 786-0 renal
SR leukemia = tested on: SR leukemia
NCI-H23 lung = tested on: NCI-H23 lung
DU-145 prostate = tested on: DU-145 prostate
UACC-257 melanoma = tested on: UACC-257 melanoma
MALME-3M melanoma = tested on: MALME-3M melanoma
HS 578T breast = tested on: HS 578T breast
NCI-H226 lung = tested on: NCI-H226 lung
SW-620 colon = tested on: SW-620 colon
HOP-92 NSCLC = tested on: HOP-92 NSCLC
TK-10 renal = tested on: TK-10 renal
U251 CNS = tested on: U251 CNS
OVCAR-3 ovarian = tested on: OVCAR-3 ovarian
A498 renal = tested on: A498 renal
OVCAR-8 ovarian = tested on: OVCAR-8 ovarian
KM12 colon = tested on: KM12 colon
HCT-116 colon = tested on: HCT-116 colon
OVCAR-4 ovarian = tested on: OVCAR-4 ovarian
MDA-MB-435 = tested on: MDA-MB-435
SF-295 CNS = tested on: SF-295 CNS
CAKI-1 renal = tested on: CAKI-1 renal
OVCAR-5 ovarian = tested on: OVCAR-5 ovarian
UACC-62 melanoma = tested on: UACC-62 melanoma
A549 NSCLC = tested on: A549 NSCLC
NCI/ADR-RES ovarian = tested on: NCI/ADR-RES ovarian
SF-539 CNS = tested on: SF-539 CNS
HOP-62 NSCLC = tested on: HOP-62 NSCLC
MCF7 breast = tested on: MCF7 breast
SF-268 CNS = tested on: SF-268 CNS
SK-MEL-5 melanoma = tested on: SK-MEL-5 melanoma
SNB-75 CNS = tested on: SNB-75 CNS
SK-MEL-28 melanoma = tested on: SK-MEL-28 melanoma

COc1cc2c(Nc3ccc(Cl)c(Cl)c3F)ncnc2cc1OCC1C[C@@H]2CN(C)C[C@@H]2C1 (stereo not given in full)
GI50 (IGROV1 ovarian): 112 nM and 28.4 nM and 50.7 nM
TGI (IGROV1 ovarian): 1950 nM and 791 nM and 1440 nM
GI50 (SNB-19 CNS): 2170 nM and 2390 nM and 2040 nM
TGI (SNB-19 CNS): 8760 nM and > 6910 nM and 7070 nM
GI50 (SK-OV-3 ovarian): 234 nM and 241 nM and 195 nM
TGI (SK-OV-3 ovarian): 902 nM and 1510 nM and 865 nM
GI50 (BT-549 breast): 4680 nM and 3760 nM and 2390 nM
TGI (BT-549 breast): 13700 nM and > 10000 nM and 7660 nM
GI50 (ACHN renal): 46.8 nM and 51.2 nM and 55.3 nM
TGI (ACHN renal): 3480 nM and > 7360 nM and 5740 nM
GI50 (K-562 leukemia): 240 nM and 114 nM and 170 nM
TGI (K-562 leukemia): 2690 nM and > 7770 nM and 3140 nM
GI50 (NCI-H522 lung): 304 nM and 75.2 nM and 640 nM
TGI (NCI-H522 lung): 2530 nM and 1660 nM and 3100 nM
GI50 (EKVX NSCLC): 33 nM and 101 nM
TGI (EKVX NSCLC): > 6550 nM and 15200 nM
GI50 (SN12C renal): 703 nM and 548 nM and 1050 nM
TGI (SN12C renal): 12600 nM and > 10000 nM and 12200 nM
GI50 (HL-60(TB) leukemia): 2310 nM and 1990 nM and 2430 nM
TGI (HL-60(TB) leukemia): 5720 nM and 4730 nM and 5730 nM
GI50 (HCC-2998 colon): 2370 nM and 1410 nM and 1820 nM
TGI (HCC-2998 colon): 7100 nM and > 5780 nM and 5030 nM
GI50 (RPMI-8226 leukemia): 1980 nM and 1490 nM and 1930 nM
TGI (RPMI-8226 leukemia): 4950 nM and 4290 nM and 5970 nM
GI50 (COLO 205 colon): 1810 nM and 1830 nM and 1720 nM
TGI (COLO 205 colon): 3470 nM and 4320 nM and 3930 nM
GI50 (UO-31 renal): 171 nM and 101 nM and 177 nM
TGI (UO-31 renal): 1930 nM and 1610 nM and 1870 nM
GI50 (T-47D breast): 465 nM and 363 nM and 330 nM
TGI (T-47D breast): 6560 nM and > 10000 nM and 10200 nM
GI50 (MOLT-4 leukemia): 2180 nM and 1860 nM and 2230 nM
TGI (MOLT-4 leukemia): 7030 nM and 7850 nM and 8670 nM
GI50 (LOX IMVI melanoma): 953 nM and 1180 nM
TGI (LOX IMVI melanoma): 2310 nM and 2490 nM and 2460 nM
GI50 (SK-MEL-2 melanoma): 2320 nM and 1920 nM and 2050 nM
TGI (SK-MEL-2 melanoma): 4830 nM and 4010 nM and 4470 nM
GI50 (RXF 393 renal): 808 nM and 690 nM and 846 nM
TGI (RXF 393 renal): 2360 nM and 2410 nM and 2510 nM
GI50 (M14 melanoma): 1770 nM and 1670 nM and 1820 nM
TGI (M14 melanoma): 3500 nM and 3530 nM and 3770 nM
GI50 (HT29 colon): 695 nM and 759 nM and 621 nM
TGI (HT29 colon): 4620 nM and 5860 nM and 4380 nM
GI50 (PC-3 prostate): 1530 nM and 1360 nM and 2120 nM
TGI (PC-3 prostate): 11600 nM and > 9560 nM and 8990 nM
GI50 (NCI-H460 lung): 2660 nM and 2730 nM and 3350 nM
TGI (NCI-H460 lung): 9160 nM and > 10000 nM and 13500 nM
TGI (CCRF-CEM leukemia): 7560 nM and 1240 nM and 10500 nM
GI50 (HCT-15 colon): 1140 nM and 1250 nM and 1130 nM
TGI (HCT-15 colon): 3700 nM and 5420 nM and 4510 nM
GI50 (MDA-MB-231 breast): 1410 nM and 1120 nM and 1500 nM
TGI (MDA-MB-231 breast): 4300 nM and 3020 nM and 4880 nM
GI50 (786-0 renal): 1110 nM and 1060 nM and 1030 nM
TGI (786-0 renal): 2580 nM and 2900 nM and 2850 nM
GI50 (SR leukemia): 2060 nM and 2090 nM and 1920 nM
TGI (SR leukemia): 5490 nM and 5210 nM and 5390 nM
GI50 (NCI-H23 lung): 1980 nM and 2100 nM
TGI (NCI-H23 lung): 7010 nM and > 6380 nM and 9220 nM
GI50 (DU-145 prostate): 751 nM and 532 nM and 673 nM
TGI (DU-145 prostate): 13600 nM and > 10000 nM and 13500 nM
GI50 (UACC-257 melanoma): 1760 nM and 1680 nM and 1950 nM
TGI (UACC-257 melanoma): 3640 nM and 3570 nM and 4050 nM
GI50 (MALME-3M melanoma): 1790 nM and 1580 nM
TGI (MALME-3M melanoma): 4250 nM and 3540 nM and 3630 nM
GI50 (HS 578T breast): 1130 nM and 1400 nM and 1540 nM
TGI (HS 578T breast): 4670 nM and 5450 nM and 5830 nM
GI50 (NCI-H226 lung): 3050 nM and > 4500 nM and 2170 nM
TGI (NCI-H226 lung): 15100 nM and > 10000 nM and 14700 nM
GI50 (SW-620 colon): 1600 nM and 1460 nM and 1720 nM
TGI (SW-620 colon): 3560 nM and 4060 nM and 5060 nM
GI50 (HOP-92 NSCLC): 247 nM and 195 nM and 1500 nM
TGI (HOP-92 NSCLC): 1850 nM and 1800 nM and 6780 nM
GI50 (TK-10 renal): 109 nM and 30.2 nM and 47.2 nM
TGI (TK-10 renal): 1760 nM and 1410 nM and 1450 nM
GI50 (U251 CNS): 1520 nM and 1800 nM and 2300 nM
TGI (U251 CNS): 3410 nM and 4430 nM and 6600 nM
GI50 (OVCAR-3 ovarian): 1010 nM and 422 nM and 1790 nM
TGI (OVCAR-3 ovarian): 8180 nM and > 9270 nM and 14700 nM
GI50 (A498 renal): 186 nM and 433 nM and 278 nM
TGI (A498 renal): 1490 nM and 2030 nM and 2050 nM
GI50 (OVCAR-8 ovarian): 2060 nM and 2090 nM and 2430 nM
TGI (OVCAR-8 ovarian): 13800 nM and > 10000 nM and 13600 nM
GI50 (KM12 colon): 2940 nM and 3500 nM and 3850 nM
TGI (KM12 colon): 9030 nM and > 10000 nM and 15700 nM
GI50 (HCT-116 colon): 2210 nM and 1590 nM and 1820 nM
TGI (HCT-116 colon): 10900 nM and > 8580 nM and 9060 nM
GI50 (OVCAR-4 ovarian): 1580 nM and 1690 nM and 1750 nM
TGI (OVCAR-4 ovarian): 13400 nM and > 10000 nM and 14000 nM
GI50 (MDA-MB-435): 1570 nM and 1780 nM and 1850 nM
TGI (MDA-MB-435): 3050 nM and 3900 nM and 4290 nM
GI50 (SF-295 CNS): 1610 nM and 1540 nM and 1460 nM
TGI (SF-295 CNS): 3410 nM and 3260 nM and 3310 nM
GI50 (CAKI-1 renal): 219 nM and 511 nM and 206 nM
TGI (CAKI-1 renal): 2750 nM and 2360 nM and 2320 nM
GI50 (OVCAR-5 ovarian): 247 nM and 532 nM and 646 nM
TGI (OVCAR-5 ovarian): 5350 nM and > 10000 nM and 13600 nM
GI50 (UACC-62 melanoma): 1910 nM and 1540 nM and 1880 nM
TGI (UACC-62 melanoma): 4150 nM and 3800 nM and 4410 nM
GI50 (A549 NSCLC): 1230 nM and 1350 nM and 1280 nM
TGI (A549 NSCLC): 4050 nM and > 5680 nM and 7930 nM
GI50 (NCI/ADR-RES ovarian): 1730 nM and 1570 nM and 1220 nM
TGI (NCI/ADR-RES ovarian): 9930 nM and > 9380 nM and 7350 nM
GI50 (SF-539 CNS): 1470 nM and 1480 nM and 1580 nM
TGI (SF-539 CNS): 3000 nM and 3010 nM and 3360 nM
GI50 (HOP-62 NSCLC): 1080 nM and 1000 nM and 1520 nM
TGI (HOP-62 NSCLC): 4170 nM and > 4900 nM and 5750 nM
GI50 (MCF7 breast): 806 nM and 1190 nM and 1520 nM
TGI (MCF7 breast): 6370 nM and > 6900 nM and 8050 nM
GI50 (SF-268 CNS): 1250 nM and 951 nM and 1290 nM
TGI (SF-268 CNS): 4310 nM and > 4820 nM and 7740 nM
GI50 (SK-MEL-5 melanoma): 1610 nM and 1550 nM and 1570 nM
TGI (SK-MEL-5 melanoma): 3010 nM and 2930 nM and 2940 nM
GI50 (SNB-75 CNS): 406 nM and 430 nM and 822 nM
TGI (SNB-75 CNS): 2030 nM and 5860 nM
GI50 (SK-MEL-28 melanoma): 1600 nM and 1570 nM and 1830 nM
TGI (SK-MEL-28 melanoma): 3330 nM and 3220 nM and 4150 nM
